Data set [1] deals with T1, Nox1 (Homo sapiens, UniProt Q9Y5S8).
T1 construct: Plasmids encoding full-length human cDNAs for Nox1 (pcDNA3.1-hNox1); expressed in transfected cells; host or cells: COS-22 (COS-7 stably expressing human p22phox), transient co-transfection
T1 sequence (Q9Y5S8 1-564): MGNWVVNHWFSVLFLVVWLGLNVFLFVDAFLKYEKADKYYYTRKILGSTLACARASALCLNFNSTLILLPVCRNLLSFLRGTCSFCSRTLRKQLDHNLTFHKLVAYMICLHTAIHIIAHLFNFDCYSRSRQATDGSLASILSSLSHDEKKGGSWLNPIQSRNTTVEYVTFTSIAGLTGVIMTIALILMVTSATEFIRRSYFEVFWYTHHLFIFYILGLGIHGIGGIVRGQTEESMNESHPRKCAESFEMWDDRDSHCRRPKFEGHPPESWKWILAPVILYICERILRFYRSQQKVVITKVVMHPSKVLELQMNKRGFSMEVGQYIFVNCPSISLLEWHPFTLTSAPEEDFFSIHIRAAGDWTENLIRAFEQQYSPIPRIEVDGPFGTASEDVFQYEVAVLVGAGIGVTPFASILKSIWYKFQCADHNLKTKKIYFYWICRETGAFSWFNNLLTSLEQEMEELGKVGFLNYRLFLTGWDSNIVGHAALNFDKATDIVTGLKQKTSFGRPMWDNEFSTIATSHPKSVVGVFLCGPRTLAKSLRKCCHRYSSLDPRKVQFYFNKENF
T1 sequence (P13498 2-195 partner limits assumed): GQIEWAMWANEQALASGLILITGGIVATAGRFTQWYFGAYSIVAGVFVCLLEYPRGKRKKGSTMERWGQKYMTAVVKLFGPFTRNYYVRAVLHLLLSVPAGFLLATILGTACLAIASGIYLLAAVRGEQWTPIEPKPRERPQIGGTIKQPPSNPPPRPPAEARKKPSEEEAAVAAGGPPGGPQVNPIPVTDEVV
As to the kind of experiment: Constitutive Nox1 activity in transiently transfected COS-Nox1/NOXO1/NOXA1 cells, L-012 assay. Conditions: for Nox1 inhibitory activity: Table 2; for IC50: constitutive activity, transiently transfected Cos-Nox1 cells, L-012, read-out: IC50 of ROS generation, Nox1 (L-012 assay). It is filed as cell-based. An excerpt: Plasmids encoding full-length human cDNAs for Nox1 (pcDNA3.1-hNox1), NOXO1 (pcDNA3.1-hNOXO1), NOXA1 (pCMVsport 6-hNOXA1), p47phox (pCMV-Tag4A-hp47) and Nox4 (pcDNA3-hNox4) were kindly provided by Dr. David Lambeth (Emory University, Ga.). Plasmids encoding Nox1, NOXO1, or NOXA1 were transformed and amplified into Escherichia coli strain TOP10 (Invitrogen, Carlsbad, Calif.). Plasmids were purified using a QIAfilter plasmid purification kit (QIAGEN Inc., Valencia, Calif.). For human Nox4 expression, the BglII/NotI restriction fragment from the pcDNA3-hNox4 was subcloned into the plasmid pcDNA3.1/Hygro(−) (Invitrogen, Carlsbad, Calif.) to generate pcDNA3.1/Hygro-hNox4. The fragment sequence, in-frame insertion and orientation were validated by DNA sequencing after PCR amplification. pcDNA3.1/Hygro-hNox4 was amplified into Escherichia coli strain TOP10 and purified with a QIAfilter plasmid purification kit.
Cell transfection was carried out using Lipofectamine LTX and Plus reagent (Invitrogen, Carlsbad, Calif., USA), according to the manufacturer's instructions. COS-22 cells were transiently co-transfected with pcDNA 3.1-hNox1, pCMVsport 6-hNOXA1 and pcDNA3.1-hNoxO1 (COS-Nox1/NOXO1/NOXA1 cells) or with pcDNA3.1/Hygro-hNox4 (COS-Nox4 cells). Cells were used 24 hr after transfection. Adherent cells were harvested by incubating with 0.05% trypsin/EDTA for 5 min at 37° C. Following addition of DMEM/10% FBS to neutralize the trypsin, the cells were pelleted by centrifugation at 1100×g for 5 min at 4° C. and used for the experiments.
COS-Nox2, COS-Nox1/NOXO1/NOXA1, HEK-Nox5 and COS-22 cells were re-plated in OPTIMEM into 384-well white micro-plates (Greiner-Bio One GmbH, Germany) at a density of 2.5×10^3 cells/well for COS-Nox2 and 5×10^4 cells/well for all others. The cells were incubated at 37° C. in PBS containing […] L-012 for 10 min. Reaction was initiated by addition of 5 μM PMA in the case of Nox2 or 1 μM PMA/0.1 μM Ionomycin in the case of Nox5. Since Nox1 was constitutively active, Nox1-derived O2^•− was assessed by comparison to non-transfected cells (Cos22). Luminescence was quantified over time using a Biotek Synergy 4 Hybrid Multi-Mode Microplate Reader. The specificity of L-012 for O2^•− was confirmed by the addition of SOD (150 U/mL).
All data are expressed as means±SEM. IC50 values were determined using the GraphPad Prism software (GraphPad Software, San Diego, Calif.) for non-linear regression three-parameters, with constrain values of 100 and 0 for top and bottom, respectively, and assumes a Hill slope of 1.

Data set [2] concerns cells. As to the kind of experiment: Cytotoxicity assay (CytoTox-Glo). In kind it is cell-based. Conditions: highest concentration tested (25 and 50 μM tested, FIG. 5). How it is done: The cytotoxic effect of compounds was tested using CytoTox-Glo kit (Promega, Madison, Wis.). This assay uses a luminogenic peptide substrate, the AAF-Glo™ Substrate, to measure dead-cell protease activity, which is released from cells that have lost membrane integrity. Cells were plated in 384-well plate at 2.5×10^3 cells/well in OPTIMEM, incubated for 15 min with the compounds at various concentrations and then carried out dead cell measurements according to manufacturer protocol. […] signals before and after the addition of digitonin were used to calculate the % of dead cells in each independent well.
Another undesirable side effect would be the reduction of ROS production in the assays due to cell death rather than an inhibition of Nox2. To verify that this was not the case for these tetrahydroisoquinolines, the effect of various concentrations of the compounds on cell viability was determined using a commercially available CytoTox-Glo assay (Promega). This assay measures the concentration of proteases released from cells that have lost membrane integrity (i.e., dead cells). Data are expressed as % of live cells in each independent well (=100−% dead cells).

Some results are limits rather than exact numbers.

This note sets out measurements from patent publication US10906876B2, “Tetrahydroisoquinolines as selective NADPH oxidase 2 inhibitors” (University of Pittsburgh—Of the Commonwealth System of …, priority 2013, dated 2021).

Regarding `C=C(C)CC1NC2CC(C)(C)C1c1c(Br)cccc12` (racemic) [Compound 7, (±)-(1S,4R,9S)-5-Bromo-3,3-dimethyl-9-(2-methylallyl)-1,2,3,4-tetrahydro-1,4-(epimino-methano)-naphthalene], in data set [1], the “Nox1 inhibitory activity” value is given as “active” and the IC50 was found to be 31 ± 0.7 µM. Also, in data set [2], the “Effect on cell viability” value was “had any effect on cell viability”. For the compound `C=C(C)CC1NC2CC(C)(C)C1c1ccccc12` (racemic) [Compound 8, (±)-(1S,4R,9S)-3,3-Dimethyl-9-(2-methylallyl)-1,2,3,4-tetrahydro-1,4-(epiminomethano)-naphthalene], in data set [1], the “Nox1 inhibitory activity” value was “inactive” and the IC50 is over 100 µM.

Take `C=C(C)CC1C2c3ccccc3C(CC2(C)C)N1Cc1cccc(F)c1` (racemic) [Compound 11a, (±)-(1S,4R,9S)-10-(3-Fluorobenzyl)-3,3-dimethyl-9-(2-methylallyl)-1,2,3,4-tetrahydro-1,4-(epiminomethano)naphthalene]: the IC50 in data set [1] is over 100 µM.

As to `C=C(C)CC1C2c3c(Br)cccc3C(CC2(C)C)N1Cc1ccnc2ccccc12` (racemic) [Compound 11b, (±)-(1S,4R,9S)-5-Bromo-3,3-dimethyl-9-(2-methylallyl)-10-(quinolin-4-ylmethyl)-1,2,3,4-tetra-hydro-1,4-(epiminomethano)naphthalene], the IC50 in data set [1] is over 100 µM. For the compound `C=C(C)CC1C2c3c(Br)cccc3C(CC2(C)C)N1Cc1c[nH]c2ccccc12` (racemic) [Compound 11c, (±)-(1S,4R,9S)-10-((1H-Indol-3-yl)methyl)-5-bromo-3,3-dimethyl-9-(2-methylallyl)-1,2,3,4-tetrahydro-1,4-(epiminomethano)naphthalene], the IC50 in data set [1] was over 100 µM. On the same count and under the same terms, for `C=C(C)CC1C2c3c(Br)cccc3C(CC2(C)C)N1Cc1ccc2c(c1)OCO2` (racemic) [Compound 11d, (±)-(1S,4R,9S)-10-(Benzo[d][1,3]dioxol-5-ylmethyl)-5-bromo-3,3-dimethyl-9-(2-methylallyl)-1,2,3,4-tetrahydro-1,4-(epiminomethano)naphthalene] the value was over 100 µM. `C=C(C)CC1C2c3c(Br)cccc3C(CC2(C)C)N1Cc1cc(C)on1` (racemic) [Compound 11e, (±)-3-(1S,4R,9S)-5-Bromo-3,3-dimethyl-9-(2-methylallyl)-1,2,3,4-tetrahydro-1,4-(epimino-methano) naphthalen-10-yl)methyl)-5-methylisoxazole]: the IC50 in data set [1] was over 100 µM. For `C=C(C)CC1C2c3c(Br)cccc3C(CC2(C)C)N1Cc1cccc(F)c1` (racemic) [Compound 11f, (±)-(1S,4R,9S)-5-Bromo-10-(3-fluorobenzyl)-3,3-dimethyl-9-(2-methylallyl)-1,2,3,4-tetrahydro-1,4-(epiminomethano)naphthalene], the IC50 in data set [1] was over 100 µM. For the compound `C=C(C)CC1C2c3c(Br)cccc3C(CC2(C)C)N1CCCCC` (racemic) [Compound 11g, (±)-(1S,4R,9S)-5-Bromo-3,3-dimethyl-9-(2-methylallyl-10-pentyl-1,2,3,4-tetrahydro-1,4-(epiminomethano)naphthalene], in data set [1], the “Nox1 inhibitory activity” value is “virtually no effect” and the IC50 was over 100 µM.

Regarding `C=C(C)CC1C2c3c(Br)cccc3C(CC2(C)C)N1Cc1cccs1` (racemic) [Compound 11h, (±)-(1S,4R,9S)-5-Bromo-3,3-dimethyl-9-(2-methylallyl)-10-(thiophen-2-ylmethyl)-1,2,3,4-tetrahydro-1,4-(epiminomethano)naphthalene], in data set [1], the “Nox1 inhibitory activity” value was “virtually no effect” and the IC50 was over 100 µM. As to `C=C(C)CC1NC2CC(C)(C)C1c1c(-c3ccc(Cl)c(Cl)c3)cccc12` (racemic) [Compound 12a, (±)-(1S,4R,9S)-5-(3,4-Dichlorophenyl)-3,3-dimethyl-9-(2-methylallyl)-1,2,3,4-tetrahydro-1,4-(epiminomethano)naphthalene], the IC50 in data set [1] was over 100 µM. Consider `C=C(C)CC1C2c3c(-c4ccc(Cl)c(Cl)c4)cccc3C(CC2(C)C)N1Cc1ccc2c(c1)OCO2` (racemic) [Compound 12b, (±)-(1S,4R,9S)-10-(Benzo[d][1,3]dioxol-5-ylmethyl)-5-(3,4-dichlorophenyl)-3,3-dimethyl-9-(2-methylallyl)-1,2,3,4-tetrahydro-1,4-(epiminomethano)-naphthalene], for which, in data set [1], the IC50 was over 100 µM. On the same count and under the same terms, the result for `C=C(C)CC1C2c3c(-c4ccc(Cl)c(Cl)c4)cccc3C(CC2(C)C)N1CCCCC` (racemic) [Compound 12c] reads over 100 µM. Consider `CC(C)CC1NC2CC(C)(C)C1c1c(Br)cccc12` (racemic) [Compound 13], for which, in data set [1], the “Nox1 inhibitory activity” value is given as “retained inhibitory activity” and the IC50 amounted to 32 ± 18 µM. In addition, the “Effect on cell viability” value in data set [2] was “had any effect on cell viability”.

With `C=C(C)CC1C2c3c(Br)cccc3C(CC2(C)C)N1S(C)(=O)=O` (racemic) [Compound 14a, (±)-(1S,4R,9S)-5-Bromo-3,3-dimethyl-9-(2-methylallyl)-10-(methylsulfonyl)-1,2,3,4-tetrahydro-1,4-(epiminomethano)naphthalene], the IC50 in data set [1] was over 100 µM.

Consider `C=C(C)CC1C2c3c(Br)cccc3C(CC2(C)C)N1S(=O)(=O)c1ccc(F)cc1` (racemic) [Compound 14b, (±)-(1S,4R,9S)-5-Bromo-10-((4-fluorophenyl)sulfonyl)-3,3-dimethyl-9-(2-methylallyl)-1,2,3,4-tetrahydro-1,4-(epiminomethano)naphthalene], for which the IC50 in data set [1] is over 100 µM. As to `C=C(C)C[C@@H]1N[C@H]2CC(C)(C)[C@@H]1c1c(Br)ccc(Br)c12` [Compound 9], in data set [1], the “Nox1 inhibitory activity” value is “active” and the IC50 amounted to 60 ± 36 µM. Besides, the “Effect on cell viability” value in data set [2] is “had any effect on cell viability”.
